These results are taken from US5183906A, “2- and 5-alkyl and phenyl substituted 4-(1-hydroxy, 1-acyloxy or 1-carbamoyloxy)-5-hydroxy-2 (5H)-furanones as anti-inflammatory agents” (Allergan, Inc., priority 1991, dated 1993).

One assay has as its system Calcium^2+ Channel. As to the kind of experiment: Calcium^2+ Channel Mobilization Inhibition Assay. The assay is classed as cell-based. The note with it: cell type not stated. The method, then:
Polymorphonuclear leukocytes (PMNa), gastric glands, GH3 cells, A431 cells, spleen cells, human keratinocytes corneal cells, etc. were loaded with the Ca^2+ sensitive fluorescent dye, Fura-2. The appropriate cell type was chosen and the potency and efficacy of the anti-inflammatory furanones on calcium mobilization, calcium channel inhibition was quantitated. The methods used for A431 cells listed below are representative of those used for other cells.
A431 cells were detached using a 5-10 min trypsin-EDTA treatment whereas GH3 cells were treated 2 to 5 min with a 1% pancreatin solution. Cells were immediately washed twice in a 20 mM HEPES buffer (pH 7.4) containing 120 mM NaCl, 6 mM KCl, 1 mM MgSO4, 1 mg/ml glucose and 1 mg/ml pyruvate and 1.4 mM calcium (medium A). Approximately 5×10^6 cells were suspended in medium A and incubated with 4uM fura-2-AM for 15 min at 37° C.
After washing the fura-2 loaded cells, the uptake of dye was checked using fluorescence microscopy and found to be evenly distributed in the cytosol of all cells. Fluorescence was continuously recorded with a Perkin-Elmer LS-5 spectrofluorometer. The excitation wavelength was set at 340 nm and emission wavelength set at 500 nm. The cell suspension was continually stirred, maintained at 37° C. and equilibrated for approximately 5 min before addition of various agents. [Ca^2+ i was calculated using the following formula: [formula]
All fluorescence values were measured relative to a EGTA-quenched signal determined as follows: F was the relative fluorescence measurement of the sample. Fmax was determined by lysing the cells with digitonin (100 ug/ml) in DMSO. After Fmax was determined the pH was adjusted to 8, with NaOH and Ca^2+ chelated with 3 mM EGTA to totally quench the fura-2 signal and obtain Fmin.
When quin-2- was used, cells were incubated with 10 uM quin-2- at 37° C. for 1 hour, washed and then used.

Assay [1] has as its target bee venom phospholipase A2 (Apis mellifera, UniProt P00630). As to the kind of experiment: biochemical. The note with it: pH 7.4.
The mark [2] stands for this setting: KCl induced, read-out: IC50, Calcium^2+ Channel Mobilization Inhibition Assay, KCl induced.
Where [3] appears, read: TRH induced, read-out: IC50, Calcium^2+ Channel Mobilization Inhibition Assay, TRH induced.

What is called IC50 is the concentration at which inhibition is half-maximal.

Like-named read-outs stand apart in the source and are kept apart here.

bee venom phospholipase A2, sequence (P00630 34-167 limits assumed): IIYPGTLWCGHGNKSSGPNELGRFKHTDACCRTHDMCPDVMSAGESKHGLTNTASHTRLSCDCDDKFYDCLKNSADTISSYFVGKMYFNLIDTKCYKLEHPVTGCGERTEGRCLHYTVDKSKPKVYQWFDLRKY

In the case of `CCCCCCCCCCCCC(OC(C)=O)C1=CC(=O)OC1(C)O` (stereo not shown) [Compound 1, 4-(1-Acetoxytridecyl)-5-hydroxy-5-methyl-2-furanone], the 50% inhibitory concentration (IC50) with Calcium^2+ Channel (setting [2]) came to 7000 nM; in the assay on Calcium^2+ Channel (setting [3]), 2500 nM.
Regarding `CCCCCCCCCCCCC(OC(C)=O)C1=C(C)C(=O)OC1O` (stereo not shown) [Compound 2, 4-(1-Acetoxytridecyl)-3-methyl-5-hydroxy-2(5H)-furanone], the IC50 in assay [1] is above 1000 nM.
Consider `CCCCCCCCCCCCC(OC(=O)Nc1ccccc1)C1=CC(=O)OC1(C)O` (stereo not shown) [Compound 4, 5-Methyl-5-hydroxy-4-(1-phenylcarbamoyloxy)tridecyl-2-furanone], for which the IC50 with Calcium^2+ Channel (setting [2]) came to 800 nM; with Calcium^2+ Channel (setting [3]), 500 nM.
As to `CC1=C(CC/C(C)=C/CCC2=CCC(C3=CC(=O)OC3O)OC2O)C(C)(C)CCC1` (stereo not shown) [manoalide, reference compound], the IC50 in the assay with Calcium^2+ Channel (setting [2]) is 800 nM; with Calcium^2+ Channel (setting [3]), 600 nM.
